Assay results: patent US12233161B1, “Lipids and lipid nanoparticle formulations” (LONGUIDE BIOPHARMA CORPORATION, priority 2024, dated 2025)
One block for each molecule: values may come before it.

Columns and labels:
[1] = tested on: mice; assay: In vivo delivery of FLuc-mRNA lipid nanoparticles in mice, in vivo imaging (IVIS); conditions: for in vivo delivery efficiency as compared to the benchmark compound SM102 / tissue-targeting specificity (lung vs spleen depending on molar percentage of compound): certain formulations, Table 2
Outline: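 Mice (n=3) received about 75 μL FLuc-mRNA LNP per mouse intramuscularly (rectus femoris), intravenously (tail vein), intraperitoneally or subcutaneously (back). After injection, D-luciferin (200 μL, 15 mg/mL) was given i.p. 10-15 min before IVIS imaging.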

[2] = Particle size and PDI of nucleic acid lipid nanoparticle preparations by dynamic light scattering; type: physicochemical
Outline: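 LNP solution (about 0.04 mg/mL mRNA before dilution) was diluted in ultrapure water and mixed by gentle pipetting. Particle size and PDI were then measured by dynamic light scattering.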

[3] = Potential characterization of nucleic acid lipid nanoparticle preparations; type: physicochemical
Description: 20 μL of the nucleic acid lipid nanoparticle solution (containing about 0.04 mg/mL mRNA) was taken and added with 780 μL of ultrapure water, used a pipette tip to gently blow and mix, and the potential of the nanopreparation was detected by Malvern particle sizer (model ZEN3700).
27.5 μL nucleic acid lipid nanoparticle solution (containing about 0.04 mg/mL mRNA) was taken and added with 200 μL ultrapure water. A pipette tip was used to gently blow the sample and mix well. The particle size of the nanopreparation was detected by Malvern Dynamic Light Scattering Instrument (Malvern Instruments Ltd., ZEN3700, UK). After the detection, the sample was recovered to an EP tube, and 600 μL of ultrapure water was added, gently blown with a pipette tip, and the potential of the nanopreparation was measured by a Malvern particle size meter.

[4] = DMG-PEG2000:DSPC:Chol:Lipid 1.00:4.00:60.00:35.00, N/P 18, IV, liver
[5] = DMG-PEG2000:DSPC:Chol:Lipid 1.00:4.00:60.00:35.00, N/P 18, IV, lung
[6] = DMG-PEG2000:DSPC:Chol:Lipid 1.00:4.00:60.00:35.00, N/P 18, IV, spleen
[7] = DMG-PEG2000:DSPC:Chol:Lipid 2.50:16.00:16.50:65.00, N/P 18, IV, liver
[8] = DMG-PEG2000:DSPC:Chol:Lipid 2.50:16.00:16.50:65.00, N/P 18, IV, lung
[9] = DMG-PEG2000:DSPC:Chol:Lipid 2.50:16.00:16.50:65.00, N/P 18, IV, spleen
[10] = mRNA LNP, 1.00:4.00:30.00:65.00, N/P 30, IV, liver
[11] = mRNA LNP, 1.00:4.00:30.00:65.00, N/P 30, IV, lung
[12] = mRNA LNP, 1.00:4.00:30.00:65.00, N/P 30, IV, spleen
[13] = DMG-PEG2000:DSPC:Chol:Lipid 1.00:4.00:60.00:35.00, N/P 18, mRNA LNP
[14] = DMG-PEG2000:DSPC:Chol:Lipid 1.71:12.98:45.31:40.00, N/P 30, mRNA LNP
[15] = DMG-PEG2000:DSPC:Chol:Lipid 2.50:16.00:16.50:65.00, N/P 18, mRNA LNP
[16] = mRNA LNP, 1.00:4.00:30.00:65.00, N/P 30
[17] = DMG-PEG2000:DSPC:Chol:Lipid 0.50:4.00:47.00:48.50, N/P 36, IV, liver
[18] = DMG-PEG2000:DSPC:Chol:Lipid 0.50:4.00:47.00:48.50, N/P 36, IV, lung
[19] = DMG-PEG2000:DSPC:Chol:Lipid 0.50:4.00:47.00:48.50, N/P 36, IV, spleen
[20] = DMG-PEG2000:DSPC:Chol:Lipid 1.00:4.00:25.00:70.00, N/P 36, IV, liver
[21] = DMG-PEG2000:DSPC:Chol:Lipid 1.00:4.00:25.00:70.00, N/P 36, IV, lung
[22] = DMG-PEG2000:DSPC:Chol:Lipid 1.00:4.00:25.00:70.00, N/P 36, IV, spleen
[23] = DMG-PEG2000:DSPC:Chol:Lipid 1.00:16.00:48.00:35.00, N/P 18, IV, liver
[24] = DMG-PEG2000:DSPC:Chol:Lipid 1.00:16.00:48.00:35.00, N/P 18, IV, lung
[25] = DMG-PEG2000:DSPC:Chol:Lipid 1.00:16.00:48.00:35.00, N/P 18, IV, spleen
[26] = DMG-PEG2000:DSPC:Chol:Lipid 0.50:4.00:47.00:48.50, N/P 36, mRNA LNP
[27] = DMG-PEG2000:DSPC:Chol:Lipid 1.00:4.00:25.00:70.00, N/P 36, mRNA LNP
[28] = DMG-PEG2000:DSPC:Chol:Lipid 1.00:16.00:48.00:35.00, N/P 18, mRNA LNP
[29] = DMG-PEG2000:DSPC:Chol:Lipid 1.40:11.15:38.95:48.50, N/P 18, mRNA LNP
[30] = DMG-PEG2000:DSPC:Chol:compound 1.00:10.00:33.00:56.00, N/P 48

PDI [2, 13]: 0.08 ± 0.02
Particle size [2, 13]: 78.48 ± 0.63 nm
PDI [2, 14]: 0.18 ± 0.00
Particle size [2, 14]: 85.86 ± 1.26 nm
PDI [2, 15]: 0.15 ± 0.01
Particle size [2, 15]: 92.82 ± 0.65 nm
PDI [2, 16]: 0.14
Particle size (nm) [2, 16]: 90.94 nm
Zeta potential (mV) [3, 16]: 12.33 mV
Compound: CCCCCCCCCCCCNC(=O)C(O)CN(CCN(C)CCN(CC(O)C(=O)NCCCCCCCCCCCC)CC(O)C(=O)NCCCCCCCCCCCC)CC(O)C(=O)NCCCCCCCCCCCC (stereo not drawn) [Compound L0264]
IVIS ([1]; DMG-PEG2000:DSPC:Chol:Lipid 1.00:4.00:60.00:35.00, N/P 18, IV, body): 9.71 × 10^7
% of organ targeting [1, 4]: 13.54%
IVIS [1, 4]: 4.70 × 10^6
% of organ targeting [1, 5]: 34.29%
IVIS [1, 5]: 1.19 × 10^7
% of organ targeting [1, 6]: 52.16%
IVIS [1, 6]: 1.81 × 10^7
IVIS ([1]; DMG-PEG2000:DSPC:Chol:Lipid 1.71:12.98:45.31:40.00, N/P 30, IM, whole body scan): 3.34 × 10^5
IVIS ([1]; DMG-PEG2000:DSPC:Chol:Lipid 2.50:16.00:16.50:65.00, N/P 18, IV, body): 4.76 × 10^7
% of organ targeting [1, 7]: 0.90%
IVIS [1, 7]: 9.86 × 10^5
% of organ targeting [1, 8]: 95.82%
IVIS [1, 8]: 1.05 × 10^8
% of organ targeting [1, 9]: 3.28%
IVIS [1, 9]: 3.59 × 10^6
in vivo delivery efficiency as compared to the benchmark compound SM102 [1]: superior in vivo delivery efficiency
tissue-targeting specificity (lung vs spleen depending on molar percentage of compound) [1]: strong tissue-targeting specificity
% of organ targeting [1, 10]: 0.40%
IVIS [1, 10]: 2.69E+06
% of organ targeting [1, 11]: 98.90%
IVIS [1, 11]: 6.68E+08
% of organ targeting [1, 12]: 0.71%
IVIS [1, 12]: 4.76E+06
IVIS ([1]; mRNA LNP, DMG-PEG2000:DSPC:Chol:lipid 1.00:4.00:30.00:65.00, N/P 30, IV, body): 2.87E+08

PDI [2, 26]: 0.11 ± 0.01
Particle size [2, 26]: 113.50 ± 0.20 nm
PDI [2, 27]: 0.18 ± 0.01
Particle size [2, 27]: 167.67 ± 2.20 nm
PDI [2, 28]: 0.15 ± 0.02
Particle size [2, 28]: 119.23 ± 0.68 nm
PDI [2, 29]: 0.13 ± 0.02
Particle size [2, 29]: 91.45 ± 0.74 nm
PDI [2, 30]: 0.13
Particle size (nm) [2, 30]: 125.97 nm
Zeta potential (mV) [3, 30]: 13.60 mV
Compound: CCCCCCCCCCCCNC(=O)C(O)CN(CCCN(CCCN(CC(O)C(=O)NCCCCCCCCCCCC)CC(O)C(=O)NCCCCCCCCCCCC)CC(O)CO)CC(O)C(=O)NCCCCCCCCCCCC (stereo not drawn) [Compound L0273]
IVIS ([1]; DMG-PEG2000:DSPC:Chol:Lipid 0.50:4.00:47.00:48.50, N/P 36, IV, body): 5.29 × 10^7
% of organ targeting [1, 17]: 1.50%
IVIS [1, 17]: 2.55 × 10^6
% of organ targeting [1, 18]: 95.51%
IVIS [1, 18]: 1.62 × 10^8
% of organ targeting [1, 19]: 2.99%
IVIS [1, 19]: 5.07 × 10^6
IVIS ([1]; DMG-PEG2000:DSPC:Chol:Lipid 1.00:4.00:25.00:70.00, N/P 36, IV, body): 1.65 × 10^8
% of organ targeting [1, 20]: 1.40%
IVIS [1, 20]: 6.91 × 10^6
% of organ targeting [1, 21]: 97.42%
IVIS [1, 21]: 4.82 × 10^8
% of organ targeting [1, 22]: 1.19%
IVIS [1, 22]: 5.88 × 10^6
IVIS ([1]; DMG-PEG2000:DSPC:Chol:Lipid 1.00:16.00:48.00:35.00, N/P 18, IV, body): 3.19 × 10^7
% of organ targeting [1, 23]: 14.38%
IVIS [1, 23]: 3.44 × 10^6
% of organ targeting [1, 24]: 9.95%
IVIS [1, 24]: 2.38 × 10^6
% of organ targeting [1, 25]: 75.67%
IVIS [1, 25]: 1.81 × 10^7
IVIS ([1]; DMG-PEG2000:DSPC:Chol:Lipid 1.40:11.15:38.95:48.50, N/P 18, IM, whole body scan): 2.54 × 10^6
IVIS ([1]; IV, body, DMG-PEG2000:DSPC:Chol:compound 1.00:10.00:33.00:56.00, N/P 48, Fluc-mRNA): 4.36E+08
% of organ targeting ([1]; IV, liver, DMG-PEG2000:DSPC:Chol:compound 1.00:10.00:33.00:56.00, N/P 48): 0.73%
IVIS ([1]; IV, liver, DMG-PEG2000:DSPC:Chol:compound 1.00:10.00:33.00:56.00, N/P 48, Fluc-mRNA): 5.72E+06
% of organ targeting ([1]; IV, lung, DMG-PEG2000:DSPC:Chol:compound 1.00:10.00:33.00:56.00, N/P 48): 98.17%
IVIS ([1]; IV, lung, DMG-PEG2000:DSPC:Chol:compound 1.00:10.00:33.00:56.00, N/P 48, Fluc-mRNA): 7.69E+08
% of organ targeting ([1]; IV, spleen, DMG-PEG2000:DSPC:Chol:compound 1.00:10.00:33.00:56.00, N/P 48): 1.09%
IVIS ([1]; IV, spleen, DMG-PEG2000:DSPC:Chol:compound 1.00:10.00:33.00:56.00, N/P 48, Fluc-mRNA): 8.58E+06
in vivo delivery efficiency as compared to the benchmark compound SM102 [1]: superior in vivo delivery efficiency
tissue-targeting specificity (lung vs spleen depending on molar percentage of compound) [1]: strong tissue-targeting specificity
